As a reminder, the pIC50 is −log10 of the IC50, conventionally taken in molar units.

IC50 data for 27 compounds are collected here from patent US8785436B2, “1,3-oxazines as BACE 1 and/or BACE2 inhibitors” (Hoffmann-La Roche Inc., priority 2011, dated 2014).

pIC50: −log10 of the molar value. Counter-ions that a name gives are not always drawn.

For the assay, the target named is T1, BACE1 (Homo sapiens, UniProt P56817).
T1 construct: Human HEK293 cells which are stably transfected with a vector expressing a cDNA of the human APP wt gene (APP695); endogenous in cells; host or cells: HEK293 cells stably expressing human APP695 wt
T1 sequence (P56817 46-501): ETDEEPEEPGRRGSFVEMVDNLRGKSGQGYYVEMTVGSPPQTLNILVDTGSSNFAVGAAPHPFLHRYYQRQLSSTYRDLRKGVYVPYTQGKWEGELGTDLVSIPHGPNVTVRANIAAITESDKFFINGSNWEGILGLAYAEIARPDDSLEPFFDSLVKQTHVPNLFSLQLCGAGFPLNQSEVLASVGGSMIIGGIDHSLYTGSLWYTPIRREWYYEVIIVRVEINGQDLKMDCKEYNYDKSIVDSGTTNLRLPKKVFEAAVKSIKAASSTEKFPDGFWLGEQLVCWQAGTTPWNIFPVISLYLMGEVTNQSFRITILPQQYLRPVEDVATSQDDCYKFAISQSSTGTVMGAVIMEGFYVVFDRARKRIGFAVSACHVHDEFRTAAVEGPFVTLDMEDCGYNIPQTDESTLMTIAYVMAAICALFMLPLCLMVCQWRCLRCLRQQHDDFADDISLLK
The assay is described as follows: Cellular Aβ-lowering assay a) (Aβ40 ELISA, HEK293 APP cells). The following applies: cellular assay a): HEK293 APP695 cells, 18-20 hrs incubation, read-out: BACE1 cell act. Aβ40 IC50. Format: cell-based. How it is done: Cellular Aβ-Lowering Assay:
a) Human HEK293 cells which are stably transfected with a vector expressing a cDNA of the human APP wt gene (APP695) were used to assess the potency of the compounds in a cellular assay. The cells were seeded in 96-well microtiter plates in cell culture medium (Iscove, plus 10% (v/v) fetal bovine serum, glutamine, penicillin/streptomycin) to about 80% confluence and the compounds were added at a 10× concentration in 1/10 volume of medium without FCS containing 8% DMSO (final concentration of DMSO was kept at 0.8% v/v). After 18-20 hrs incubation at 37° C. and 5% CO2 in a humidified incubator the culture supernatant was harvested for the determination of Aβ40 concentrations. 96 well ELISA plates (e.g., Nunc MaxiSorb) were coated with monoclonal antibody which specifically recognize the C-terminal end of Aβ40 (Brockhaus et al., NeuroReport 9, 1481-1486; 1998). After blocking of non-specific binding sites with e.g. 1% BSA and washing, the culture supernatants were added in suitable dilutions together with a horseradish peroxidase-coupled Aβ detection antibody (e.g., antibody 4G8, Senetek, Maryland Heights, Mo.) and incubated for 5 to 7 hrs. Subsequently the wells of the microtiter plate were washed extensively with Tris-buffered saline containing 0.05% Tween 20 and the assay was developed with tetramethylbenzidine/H2O2 in citric acid buffer. After stopping the reaction with one volume 1 NH2SO4 the reaction was measured in an ELISA reader at 450 nm wavelength. The concentrations of Aβ in the culture supernatants were calculated from a standard curve obtained with known amounts of pure Aβ peptide.
(ELISA stands for enzyme-linked immunosorbent assay.)
In the case of `Cc1cc(C(C)Nc2ccc(F)c([C@@]3(C)N=C(N)OCC3(F)F)c2)[nH]n1` (mixture of isomers) [Example 17, (R)-5,5-Difluoro-4-{2-fluoro-5-[(RS)-1-(5-methyl-2H-pyrazol-3-yl)-ethylamino]-phenyl}-4-methyl-5,6-dihydro-4H-[1,3]oxazin-2-ylamine], the pIC50 is 6.37.

On to `CC(Nc1ccc(F)c([C@@]2(C)N=C(N)OCC2(F)F)c1)c1nn(C)cc1Cl` (mixture of isomers) [Example 18, (R)-4-{5-[(RS)-1-(4-Chloro-1-methyl-1H-pyrazol-3-yl)-ethylamino]-2-fluoro-phenyl}-5,5-difluoro-4-methyl-5,6-dihydro-4H-[1,3]oxazin-2-ylamine], for which the pIC50 was 5.91.

For the compound `CC(Nc1ccc(F)c([C@@]2(C)N=C(N)OCC2(F)F)c1)c1nn(CC(F)F)cc1Cl` (mixture of isomers) [Example 19, (R)-4-(5-{(RS)-1-[4-Chloro-1-(2,2-difluoro-ethyl)-1H-pyrazol-3-yl]-ethylamino}-2-fluoro-phenyl)-5,5-difluoro-4-methyl-5,6-dihydro-4H-[1,3]oxazin-2-ylamine], the pIC50 is 5.75.

Regarding `CC(Nc1ccc(F)c([C@@]2(C)N=C(N)OCC2(F)F)c1)c1cc(C2CC2)on1` (mixture of isomers) [Example 20, (R)-4-{5-[(RS)-1-(5-Cyclopropyl-isoxazol-3-yl)-ethylamino]-2-fluoro-phenyl}-5,5-difluoro-4-methyl-5,6-dihydro-4H-[1,3]oxazin-2-ylamine], the pIC50 was 5.70.

For the compound `C[C@]1(c2cc(NC3CCOC3)ccc2F)N=C(N)OCC1(F)F` (mixture of isomers) [Example 26, (R)-5,5-Difluoro-4-{2-fluoro-5-[(RS)-(tetrahydro-furan-3-yl)amino]-phenyl}-4-methyl-5,6-dihydro-4H-[1,3]oxazin-2-ylamine], the pIC50 was 6.40.

With `C[C@]1(c2cc(NC3CCCc4cc(C#N)cnc43)ccc2F)N=C(N)OCC1(F)F` (mixture of isomers) [Example 27, (RS)-8-[3-((R)-2-Amino-5,5-difluoro-4-methyl-5,6-dihydro-4H-[1,3]oxazin-4-yl)-4-fluoro-phenylamino]-5,6,7,8-tetrahydro-quinoline-3-carbonitrile], the pIC50 was 6.34.

As to `C[C@]1(c2cc(NC3CS(=O)(=O)c4ccccc43)ccc2F)N=C(N)OCC1(F)F` (mixture of isomers) [Example 28, (R)-4-[5-((RS)-1,1-Dioxo-2,3-dihydro-1H-1λ6-benzo[b]thiophen-3-ylamino)-2-fluoro-phenyl]-5,5-difluoro-4-methyl-5,6-dihydro-4H-[1,3]oxazin-2-ylamine], the pIC50 is 5.79.

For the compound `C[C@]1(c2cc(NCC3CCOC3)ccc2F)N=C(N)OCC1(F)F` (mixture of isomers) [Example 30, (R)-5,5-Difluoro-4-{2-fluoro-5-{[(RS)-1-(tetrahydro-furan-3-yl)methyl]-amino}-phenyl}-4-methyl-5,6-dihydro-4H-[1,3]oxazin-2-ylamine], the pIC50 is 5.67.

Consider `C[C@]1(c2cc3c(cc2F)OCC(c2ccc(Cl)cn2)N3)N=C(N)OCC1(F)F` (mixture of isomers) [Example 38, (R)-4-[(RS)-3-(5-Chloro-pyridin-2-yl)-7-fluoro-3,4-dihydro-2H-benzo[1,4]oxazin-6-yl]-5,5-difluoro-4-methyl-5,6-dihydro-4H-[1,3]oxazin-2-ylamine], for which the pIC50 was 5.26.

With `C[C@@]1(c2cc(NC3CCCC3)ccc2F)CCOC(N)=N1` [Example 2, (S)-4-(5-Cyclopentylamino-2-fluoro-phenyl)-4-methyl-5,6-dihydro-4H-[1,3]oxazin-2-ylamine], the pIC50 is 6.47.

`C[C@]1(c2cc(NCc3ccsc3)ccc2F)N=C(N)OC[C@@H]1F` [Example 6, (4R,5R)-5-Fluoro-4-{2-fluoro-5-[(thiophen-3-ylmethyl)-amino]-phenyl}-4-methyl-5,6-dihydro-4H-[1,3]oxazin-2-ylamine]: the pIC50 was 6.18.

As to `C[C@]1(c2cc(-c3cncc(C#N)c3)ccc2F)N=C(N)OC[C@@H]1F` [Example 9, 5-[3-((4R,5R)-2-Amino-5-fluoro-4-methyl-5,6-dihydro-4H-[1,3]oxazin-4-yl)-4-fluoro-phenyl]-nicotinonitrile], the pIC50 is 6.72.

On to `C[C@]1(c2cc(-c3cnn(-c4ccc(F)cc4)c3)ccc2F)N=C(N)OC[C@@H]1F` [Example 10, (4R,5R)-5-Fluoro-4-{2-fluoro-5-[1-(4-fluoro-phenyl)-1H-pyrazol-4-yl]-phenyl}-4-methyl-5,6-dihydro-4H-[1,3]oxazin-2-ylamine Hydrochloride], for which the pIC50 was 6.44.

Consider `Cc1cnn(-c2ccc(F)c([C@@]3(C)N=C(N)OC[C@@H]3F)c2)c1` [Example 11, (4R,5R)-5-Fluoro-4-[2-fluoro-5-(4-methyl-pyrazol-1-yl)-phenyl]-4-methyl-5,6-dihydro-4H-[1,3]oxazin-2-ylamine], for which the pIC50 was 5.89.

Regarding `CC1(CNc2ccc(F)c([C@@]3(C)N=C(N)OCC3(F)F)c2)COC1` [Example 24, (R)-5,5-Difluoro-4-{2-fluoro-5-[(3-methyl-oxetan-3-ylmethyl)-amino]-phenyl}-4-methyl-5,6-dihydro-4H-[1,3]oxazin-2-ylamine], the pIC50 is 6.52.

Regarding `C[C@]1(c2cc(NC3COC3)ccc2F)N=C(N)OCC1(F)F` [Example 29, (R)-5,5-Difluoro-4-[2-fluoro-5-(oxetan-3-ylamino)-phenyl]-4-methyl-5,6-dihydro-4H-[1,3]oxazin-2-ylamine], the pIC50 is 5.71.

In the case of `C[C@]1(c2cc(-c3cnn(-c4ccc(F)cc4)c3)ccc2F)N=C(N)OCC1(F)F` [Example 31, (R)-5,5-Difluoro-4-{2-fluoro-5-[1-(4-fluoro-phenyl)-1H-pyrazol-4-yl]-phenyl}-4-methyl-5,6-dihydro-4H-[1,3]oxazin-2-ylamine], the pIC50 is 5.07.

Turning to `C[C@]1(c2cccc(OCc3ccc(C#N)cc3)c2)N=C(N)OCC1(F)F` [Example 34, 4-[3-((R)-2-Amino-5,5-difluoro-4-methyl-5,6-dihydro-4H-[1,3]oxazin-4-yl)-phenoxymethyl]-benzonitrile], the pIC50 was 5.85.

With `C[C@]1(c2cccc(OCc3ccc(Cl)cc3)c2)N=C(N)OCC1(F)F` [Example 35, (R)-4-[3-(4-Chloro-benzyloxy)-phenyl]-5,5-difluoro-4-methyl-5,6-dihydro-4H-[1,3]oxazin-2-ylamine], the pIC50 was 5.40.

Turning to `C[C@]1(c2cccc(OCc3ccc(C(F)(F)F)cc3)c2)N=C(N)OCC1(F)F` [Example 36, (R)-5,5-Difluoro-4-methyl-4-[3-(4-trifluoromethyl-benzyloxy)-phenyl]-5,6-dihydro-4H-[1,3]oxazin-2-ylamine], the pIC50 is 5.11.

In the case of `Cc1ccc(Cc2nc3ccc([C@@]4(C)N=C(N)OCC4(F)F)cc3[nH]2)cc1` [Example 37, (R)-5,5-Difluoro-4-methyl-4-[2-(4-methyl-benzyl)-3H-benzoimidazol-5-yl]-5,6-dihydro-4H-[1,3]oxazin-2-ylamine], the pIC50 is 6.52.

Regarding `COc1ccc(Cc2cc3cc(F)c([C@@]4(C)N=C(N)OCC4(F)F)cc3[nH]2)cc1` [Example 39, (R)-5,5-Difluoro-4-[5-fluoro-2-(4-methoxy-benzyl)-1H-indol-6-yl]-4-methyl-5,6-dihydro-4H-[1,3]oxazin-2-ylamine], the pIC50 is 5.25.

Consider `C#CCNC(=O)c1ccc(F)c([C@@]2(C)N=C(N)OCC2(F)F)c1` [Example 41, 3-((R)-2-Amino-5,5-difluoro-4-methyl-5,6-dihydro-4H-[1,3]oxazin-4-yl)-4-fluoro-N-prop-2-ynyl-benzamide], for which the pIC50 was 5.18.

With `CC1(C)OC(N)=N[C@](C)(c2cc(Nc3ccccc3Cl)ccc2F)C1(F)F` [Example 42, (R)-4-[5-(2-Chloro-phenylamino)-2-fluoro-phenyl]-5,5-difluoro-4,6,6-trimethyl-5,6-dihydro-4H-[1,3]oxazin-2-ylamine], the pIC50 was 5.83.

`Cc1ccccc1Nc1ccc(F)c([C@@]2(C)N=C(N)OC(C)(C)C2(F)F)c1` [Example 45, (R)-5,5-Difluoro-4-(2-fluoro-5-o-tolylamino-phenyl)-4,6,6-trimethyl-5,6-dihydro-4H-[1,3]oxazin-2-ylamine]: the pIC50 was 5.53.

`CC1(C)OC(N)=N[C@](C)(c2cc(Nc3ccccc3C(F)(F)F)ccc2F)C1(F)F` [Example 46, (R)-5,5-Difluoro-4-[2-fluoro-5-(2-trifluoromethyl-phenylamino)-phenyl]-4,6,6-trimethyl-5,6-dihydro-4H-[1,3]oxazin-2-ylamine]: the pIC50 is 5.16.

Regarding `CC1(C)OC(N)=N[C@](C)(c2cc(-c3cncc(Cl)c3)ccc2F)C1(F)F` [Example 50, (R)-4-[5-(5-Chloro-pyridin-3-yl)-2-fluoro-phenyl]-5,5-difluoro-4,6,6-trimethyl-5,6-dihydro-4H-[1,3]oxazin-2-ylamine Hydrochloride], the pIC50 was 5.04.
